Measurements as given in ChEMBL document CHEMBL1149262, “Monoamine transporter binding, locomotor activity, and drug discrimination properties of 3-(4-substituted-phenyl)tropane-2-carboxylic acid methyl ester isomers” (J Med Chem, 2004).
pIC50, pKi: −log10 of the molar value. Active and inactive are the calls of the source. No cut-off for these calls is given here.

What was measured:
[1] = system: Rattus norvegicus; experiment: Cocaine discrimination in ip dosed CD Albino rat; assay type: functional
[2] = system: Rattus norvegicus; experiment: Drug discrimination effect in CD Albino rat assessed as percent of rat choosing cocaine lever at 1 mg/kg, ip; assay type: functional; settings: route intraperitoneal
[3] = system: Rattus norvegicus; experiment: Drug discrimination effect in CD Albino rat assessed as percent of rat choosing cocaine lever at 3 mg/kg, ip; assay type: functional; settings: route intraperitoneal
[4] = system: Rattus norvegicus; experiment: Drug discrimination effect in CD Albino rat assessed as percent of rat choosing cocaine lever at 5.6 mg/kg, ip; assay type: functional; settings: route intraperitoneal
[5] = system: Rattus norvegicus; experiment: Drug discrimination effect in CD Albino rat assessed as percent of rat choosing cocaine lever at 10 mg/kg, ip; assay type: functional; settings: route intraperitoneal
[6] = system: Mus musculus; experiment: Activity in CD1 mouse assessed as stereotypy at 10 mg/kg, ip after 4 hrs; assay type: functional, organism-based; design: dose 10 mg/kg
[7] = system: Mus musculus; experiment: Activity in CD1 mouse assessed as circling at 10 mg/kg, ip after 4 hrs; assay type: functional, organism-based; design: dose 10 mg/kg
[8] = system: Mus musculus; experiment: Activity in CD1 mouse assessed as slight or intermittent hyperactivity at 10 mg/kg, ip after 4 hrs; assay type: functional, organism-based; design: dose 10 mg/kg
[9] = system: Mus musculus; experiment: Activity in CD1 mouse assessed as hyperactivity at 100 mg/kg, ip after 4 hrs; assay type: functional, organism-based; design: dose 100 mg/kg
[10] = system: Mus musculus; experiment: Activity in CD1 mouse assessed as stereotypy at 100 mg/kg, ip after 4 hrs; assay type: functional, organism-based; design: dose 100 mg/kg
[11] = system: Mus musculus; experiment: Activity in CD1 mouse assessed as circling at 100 mg/kg, ip after 4 hrs; assay type: functional, organism-based; design: dose 100 mg/kg
[12] = target: Sodium-dependent noradrenaline transporter (Homo sapiens, UniProt P23975); experiment: Displacement of [3H]nisoxetine from NET
[13] = system: Mus musculus; experiment: Locomotor activity in ip dosed CD1 mouse in peak hour; assay type: functional
[14] = system: Mus musculus; experiment: Locomotor activity in CD1 mouse assessed as stimulation at 3 mg/kg, ip after 1 hr relative to control; assay type: functional; settings: route intraperitoneal
[15] = system: Mus musculus; experiment: Locomotor activity in CD1 mouse assessed as stimulation at 3 mg/kg, ip after 2 hrs relative to control; assay type: functional; settings: route intraperitoneal
[16] = system: Mus musculus; experiment: Locomotor activity in CD1 mouse assessed as stimulation at 3 mg/kg, ip after 3 hrs relative to control; assay type: functional; settings: route intraperitoneal
[17] = system: Mus musculus; experiment: Locomotor activity in CD1 mouse assessed as stimulation at 3 mg/kg, ip after 4 hrs relative to control; assay type: functional; settings: route intraperitoneal
[18] = system: Mus musculus; experiment: Locomotor activity in CD1 mouse assessed as stimulation at 10 mg/kg, ip after 1 hr relative to control; assay type: functional; settings: route intraperitoneal
[19] = system: Mus musculus; experiment: Locomotor activity in CD1 mouse assessed as stimulation at 10 mg/kg, ip after 2 hrs relative to control; assay type: functional; settings: route intraperitoneal
[20] = system: Mus musculus; experiment: Locomotor activity in CD1 mouse assessed as stimulation at 10 mg/kg, ip after 3 hrs relative to control; assay type: functional; settings: route intraperitoneal
[21] = system: Mus musculus; experiment: Locomotor activity in CD1 mouse assessed as stimulation at 10 mg/kg, ip after 4 hrs relative to control; assay type: functional; settings: route intraperitoneal
[22] = system: Mus musculus; experiment: Locomotor activity in CD1 mouse assessed as stimulation at 30 mg/kg, ip after 1 hr relative to control; assay type: functional; settings: route intraperitoneal
[23] = system: Mus musculus; experiment: Locomotor activity in CD1 mouse assessed as stimulation at 30 mg/kg, ip after 2 hrs relative to control; assay type: functional; settings: route intraperitoneal
[24] = system: Mus musculus; experiment: Locomotor activity in CD1 mouse assessed as stimulation at 30 mg/kg, ip after 3 hrs relative to control; assay type: functional; settings: route intraperitoneal
[25] = system: Mus musculus; experiment: Locomotor activity in CD1 mouse assessed as stimulation at 30 mg/kg, ip after 4 hrs relative to control; assay type: functional; settings: route intraperitoneal
[26] = system: Mus musculus; experiment: Locomotor activity in CD1 mouse assessed as stimulation at 100 mg/kg, ip after 1 hr relative to control; assay type: functional; settings: route intraperitoneal
[27] = system: Mus musculus; experiment: Locomotor activity in CD1 mouse assessed as stimulation at 100 mg/kg, ip after 2 hrs relative to control; assay type: functional; settings: route intraperitoneal
[28] = system: Mus musculus; experiment: Locomotor activity in CD1 mouse assessed as stimulation at 100 mg/kg, ip after 3 hrs relative to control; assay type: functional; settings: route intraperitoneal
[29] = system: Mus musculus; experiment: Locomotor activity in CD1 mouse assessed as stimulation at 100 mg/kg, ip after 4 hrs relative to control; assay type: functional; settings: route intraperitoneal
[30] = target: Sodium-dependent serotonin transporter (Homo sapiens, UniProt P31645)
Description: Displacement of [3H]paroxetine from 5HTT

[31] = target: Sodium-dependent dopamine transporter (Homo sapiens, UniProt Q01959); experiment: Displacement of [3H]WIN-35428 from DAT
[32] = system: Mus musculus; experiment: Locomotor activity in CD1 mouse assessed as stimulation at 0.3 mg/kg, ip after 1 hr relative to control; assay type: functional; settings: route intraperitoneal
[33] = system: Mus musculus; experiment: Locomotor activity in CD1 mouse assessed as stimulation at 0.3 mg/kg, ip after 2 hrs relative to control; assay type: functional; settings: route intraperitoneal
[34] = system: Mus musculus; experiment: Locomotor activity in CD1 mouse assessed as stimulation at 0.3 mg/kg, ip after 3 hrs relative to control; assay type: functional; settings: route intraperitoneal
[35] = system: Mus musculus; experiment: Locomotor activity in CD1 mouse assessed as stimulation at 0.3 mg/kg, ip after 4 hrs relative to control; assay type: functional; settings: route intraperitoneal
[36] = system: Mus musculus; experiment: Locomotor activity in CD1 mouse assessed as stimulation at 1 mg/kg, ip after 1 hr relative to control; assay type: functional; settings: route intraperitoneal
[37] = system: Mus musculus; experiment: Locomotor activity in CD1 mouse assessed as stimulation at 1 mg/kg, ip after 2 hrs relative to control; assay type: functional; settings: route intraperitoneal
[38] = system: Mus musculus; experiment: Locomotor activity in CD1 mouse assessed as stimulation at 1 mg/kg, ip after 3 hrs relative to control; assay type: functional; settings: route intraperitoneal
[39] = system: Mus musculus; experiment: Locomotor activity in CD1 mouse assessed as stimulation at 1 mg/kg, ip after 4 hrs relative to control; assay type: functional; settings: route intraperitoneal
[40] = system: Rattus norvegicus; experiment: Drug discrimination effect in CD Albino rat assessed as percent of rat choosing cocaine lever at 0.17 mg/kg, ip; assay type: functional; settings: route intraperitoneal
[41] = system: Rattus norvegicus; experiment: Drug discrimination effect in CD Albino rat assessed as percent of rat choosing cocaine lever at 0.3 mg/kg, ip; assay type: functional; settings: route intraperitoneal
[42] = system: Rattus norvegicus; experiment: Drug discrimination effect in CD Albino rat assessed as percent of rat choosing cocaine lever at 0.56 mg/kg, ip; assay type: functional; settings: route intraperitoneal
[43] = system: Mus musculus; experiment: Activity in CD1 mouse assessed as hyperactivity at 1 mg/kg, ip after 4 hrs; assay type: functional, organism-based; design: dose 1 mg/kg
[44] = system: Mus musculus; experiment: Activity in CD1 mouse assessed as stereotypy at 1 mg/kg, ip after 4 hrs; assay type: functional, organism-based; design: dose 1 mg/kg
[45] = system: Mus musculus; experiment: Activity in CD1 mouse assessed as hyperactivity at 10 mg/kg, ip after 4 hrs; assay type: functional, organism-based; design: dose 10 mg/kg
[46] = system: Mus musculus; experiment: Activity in CD1 mouse assessed as straub tail at 100 mg/kg, ip after 4 hrs; assay type: functional, organism-based; design: dose 100 mg/kg
[47] = system: Mus musculus; experiment: Activity in CD1 mouse assessed as convulsions at 100 mg/kg, ip after 4 hrs; assay type: functional, organism-based; design: dose 100 mg/kg
[48] = system: Rattus norvegicus; experiment: Drug discrimination effect in CD Albino rat assessed as percent of rat choosing cocaine lever at 0.1 mg/kg, ip; assay type: functional; settings: route intraperitoneal
[49] = system: Rattus norvegicus; experiment: Drug discrimination effect in CD Albino rat assessed as percent of rat choosing cocaine lever at 1.7 mg/kg, ip; assay type: functional; settings: route intraperitoneal

Sodium-dependent noradrenaline transporter, sequence (P23975 whole entry): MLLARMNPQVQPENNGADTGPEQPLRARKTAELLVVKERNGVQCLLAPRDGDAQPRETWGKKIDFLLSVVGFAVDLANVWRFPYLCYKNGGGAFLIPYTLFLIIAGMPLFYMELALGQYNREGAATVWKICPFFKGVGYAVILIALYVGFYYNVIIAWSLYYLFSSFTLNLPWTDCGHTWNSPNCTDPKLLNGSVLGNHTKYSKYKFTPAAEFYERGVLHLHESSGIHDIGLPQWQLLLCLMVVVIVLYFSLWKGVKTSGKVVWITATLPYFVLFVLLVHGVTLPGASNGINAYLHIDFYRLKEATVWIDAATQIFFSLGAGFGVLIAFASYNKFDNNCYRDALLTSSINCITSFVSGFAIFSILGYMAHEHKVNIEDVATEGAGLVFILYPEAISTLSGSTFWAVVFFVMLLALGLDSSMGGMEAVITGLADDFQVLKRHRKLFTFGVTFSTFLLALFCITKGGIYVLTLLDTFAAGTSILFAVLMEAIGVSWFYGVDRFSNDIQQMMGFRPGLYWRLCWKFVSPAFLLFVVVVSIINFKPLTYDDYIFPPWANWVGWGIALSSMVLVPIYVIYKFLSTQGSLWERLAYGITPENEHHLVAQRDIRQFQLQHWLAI
Sodium-dependent serotonin transporter, sequence (P31645 whole entry): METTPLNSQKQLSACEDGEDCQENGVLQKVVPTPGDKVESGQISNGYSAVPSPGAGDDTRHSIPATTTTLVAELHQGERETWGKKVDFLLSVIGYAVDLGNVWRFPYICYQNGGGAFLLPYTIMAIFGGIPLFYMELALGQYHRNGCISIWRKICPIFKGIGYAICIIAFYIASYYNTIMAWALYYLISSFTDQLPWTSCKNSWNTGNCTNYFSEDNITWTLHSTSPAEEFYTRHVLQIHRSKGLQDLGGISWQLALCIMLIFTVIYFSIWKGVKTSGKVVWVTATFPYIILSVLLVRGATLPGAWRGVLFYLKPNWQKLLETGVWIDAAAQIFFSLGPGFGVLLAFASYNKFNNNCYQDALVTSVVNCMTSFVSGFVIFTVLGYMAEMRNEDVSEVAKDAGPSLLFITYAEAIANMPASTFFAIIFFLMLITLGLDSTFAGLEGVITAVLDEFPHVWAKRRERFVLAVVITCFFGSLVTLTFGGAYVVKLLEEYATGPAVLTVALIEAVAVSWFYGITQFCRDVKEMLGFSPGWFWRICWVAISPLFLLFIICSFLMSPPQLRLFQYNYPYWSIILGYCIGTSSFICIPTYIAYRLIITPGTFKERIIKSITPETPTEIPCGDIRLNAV
Sodium-dependent dopamine transporter, sequence (Q01959 whole entry): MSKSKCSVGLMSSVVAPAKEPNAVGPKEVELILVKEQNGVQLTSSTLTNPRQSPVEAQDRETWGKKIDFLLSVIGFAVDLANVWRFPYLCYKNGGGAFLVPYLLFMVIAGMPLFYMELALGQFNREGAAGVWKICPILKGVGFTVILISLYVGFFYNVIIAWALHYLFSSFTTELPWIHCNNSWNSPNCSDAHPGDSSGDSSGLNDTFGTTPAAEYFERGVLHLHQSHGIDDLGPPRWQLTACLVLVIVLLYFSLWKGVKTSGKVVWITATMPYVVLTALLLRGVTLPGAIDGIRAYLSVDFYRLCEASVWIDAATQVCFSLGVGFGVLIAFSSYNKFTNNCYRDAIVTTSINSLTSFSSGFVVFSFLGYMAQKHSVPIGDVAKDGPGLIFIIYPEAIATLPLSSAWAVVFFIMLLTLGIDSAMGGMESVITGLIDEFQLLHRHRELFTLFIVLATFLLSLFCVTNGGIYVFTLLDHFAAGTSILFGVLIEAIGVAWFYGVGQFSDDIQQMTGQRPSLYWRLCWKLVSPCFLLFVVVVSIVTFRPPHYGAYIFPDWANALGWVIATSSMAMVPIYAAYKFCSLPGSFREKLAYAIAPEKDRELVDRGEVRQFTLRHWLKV

Row | SMILES | ED50 [1] [mg/kg] | Activity [2] [%] | Activity [3] [%] | Activity [4] [%] | Activity [5] [%] | Activity [6] | Activity [9] | Activity [10] | pIC50 [12] | pKi [12] | ED50 [13] [mg/kg] | Activity [14] [%] | Activity [15] [%] | Activity [16] [%] | Activity [17] [%] | Activity [18] [%] | Activity [19] [%] | Activity [20] [%] | Activity [21] [%] | Activity [22] [%] | further results
1 | COC(=O)[C@@H]1C2CCC(C[C@H]1c1ccc(F)cc1)N2C (stereo partly drawn) | 5.66 | 0 | 29 | 38 | 86 | Active | Active | Active | 5.92 | 6.13 | 15.6 | 26 | -23 | 16 | 41 | 137 | 105 | 146 | 58 | 362 | Activity [7]: Active; Activity [8]: Active; Activity [11]: Active; Activity [23]: 187%; Activity [24]: 215%; Activity [25]: 66%; Activity [26]: 575%; Activity [27]: 340%; Activity [28]: 194%; Activity [29]: 73%; pIC50 [30]: 5.30; pKi [30]: 6.34
2 | COC(=O)[C@@H]1C2CCC(C[C@H]1c1ccccc1)N2C (stereo partly drawn) | 3.19 |  | 13 | 100 | 100 | Active | Active | Active | 6.27 | 6.57 | 21.8 | -30 | -39 | -35 | 12 | 43 | 6 | -13 | 6 | 161 | Activity [8]: Active; Activity [11]: Active; pIC50 [31]: 7.00; Activity [23]: 17%; Activity [24]: 47%; Activity [25]: 97%; Activity [26]: 338%; Activity [27]: 191%; Activity [28]: 234%; Activity [29]: 390%
3 | COC(=O)[C@@H]1C2CC[C@H](C[C@@H]1c1ccccc1)N2C | 0.34 | 100 |  |  |  | Active |  | Active | 6.04 | 6.26 | 1.2 | 660 | 506 | 276 | 199 | 904 | 1080 | 964 | 190 |  | Activity [32]: 44%; Activity [33]: 56%; Activity [34]: 24%; Activity [35]: 62%; Activity [36]: 253%; Activity [37]: 192%; Activity [38]: 102%; Activity [39]: 151%; Activity [40]: 14%; Activity [41]: 36%; Activity [42]: 88%; Activity [43]: Active; Activity [44]: Active; Activity [45]: Active; Activity [7]: Active; Activity [46]: Active; Activity [47]: Active
4 | COC(=O)[C@@H]1C2CC[C@H](C[C@@H]1c1ccc(C)cc1)N2C | 0.31 | 86 |  |  |  | Active |  | Active | 7.22 | 7.44 | 0.6 | 533 | 460 | 157 | 30 | 283 | 476 | 343 | 273 |  | Activity [32]: 19%; Activity [33]: -3%; Activity [34]: -61%; Activity [35]: -28%; Activity [36]: 305%; Activity [37]: 298%; Activity [38]: 41%; Activity [39]: -4%; Activity [40]: 25%; Activity [41]: 57%; Activity [42]: 71%; pIC50 [31]: 8.77; Activity [48]: 0%
5 | COC(=O)[C@H]1[C@@H](OC(=O)c2ccccc2)C[C@@H]2CC[C@H]1N2C [COCAINE] | 2.44 | 21 | 59 | 82 | 97 |  | Active | Active |  |  | 10 | 27 | 14 | -17 | -9 | 127 | 24 | 10 | -21 | 341 | Activity [49]: 32%; Activity [45]: Active; Activity [47]: Active; Activity [23]: 100%; Activity [24]: -10%; Activity [25]: 16%; Activity [26]: 269%; Activity [27]: 391%; Activity [28]: 255%; Activity [29]: 91%
